Entries after “also recorded” stand apart in the source; their conditions may differ.
Tests used:
[1] = test system: Runx2, osteocalcin, osteopontin and ALP mRNA in MC3T3-E1 cells; test: RT qPCR of osteoblastic differentiation markers; assay type: cell-based; conditions: MC3T3-E1, 10 μM, 7 days
Description: (§1) (A) MC3T3-E1 and (B) AMPCs cells were treated or not with 10 μM Histatin-1 for 7 days. Total RNA was extracted, for subsequent RT qPCR analysis of Runx2, osteocalcin, osteopontin and ALP.
(§2) To evaluate the differentiation towards bone lineage in the presence of Histatin-1, the expression of the osteocalcin, osteopontin, Runx2 and ALP gene were determined, as markers of differentiation, by means of a qPCR assay for mRNA content analysis. For this, osteoblasts-like cells and stem cells from the apical papilla were grown in complete medium supplemented with bovine serum, in the absence or presence of 10 μM Histatin-1 for 24 h. Total RNA was extracted with TRIZOL (Invitrogen, Life Technologies), following the manufacturer's instructions. For cDNA synthesis, samples were treated with RNase-Free DNase kit (#M6101 Promega), quantified and purity was verified for subsequent reverse transcription, using the cDNA Reverse Transcription Kit (Applied Biosystems). Alkaline phosphatase, osteocalcin, osteopontin, Runx2 and GAPDH were quantified by qRT-PCR (Applied Biosystems, ΔΔCt method).
(§3) Total RNA was extracted, for subsequent RT qPCR analysis of Runx2, osteocalcin, osteopontin and ALP. Relative abundance of all screened mRNAs was normalized to GAPDH, by using the ΔΔCT method. Graphs show data obtained by averaging 3 independent experiments (mean±s.e.m.; *p<0.05; **p<0.01).

[2] = test system: Runx2, osteocalcin, osteopontin and ALP mRNA in APMCs; test: RT qPCR of osteoblastic differentiation markers; assay type: cell-based; conditions: 10 μM, 7 days
Description: as §1, §2, §3

endothelial cells = conditions: in vitro; cited from earlier work
MC3T3-E1 pre-osteoblasts = test: Transwell cell migration assay; assay type: cell-based; conditions: MC3T3-E1, 10 μM, 60 min, Transwell coated with 2 μg/ml fibronectin
Description: (§4) For this, (A) SAOS 2 cells were collected, resuspended in serum-free medium either containing or not 10 μM Histatin-1, and incubated for 30 min. Cells were then allowed to attach to fibronectin coated plates (2 μg/ml) for 5, 10, 15, 30, 45 and 60 min in serum-free medium, containing or not 10 μM Histatin-1. Cell adhesion was detected by crystal violet staining and counting under an optic microscope. Representative images are shown for each time point, in the absence or presence of Histatin 1. […] (B, C and D) Cell migration was measured in Transwell chambers coated with 2 μg/ml fibronectin. Briefly, SAOS 2 (B), MC3T3 E1 cells (C) and APMCs (apical papilla mesenchymal cells, D) were allowed to migrate for 60 min in Transwell chambers, in the presence of 10 μM Histatin 1 or 10 μM of non-phosphorylated Histatin 1 (no P), 10 μM of a scramble sequence or vehicle control (H2O). Cells that migrated were visualized by crystal violet staining. Representative images are shown, and graphs represent the averages of 3 independent experiments (mean±s.e.m; *p<0.05; **p<0.01).

[3] = test system: SAOS-2 osteosarcoma cells; test: Transwell cell migration assay; assay type: cell-based; conditions: SAOS-2, 10 μM, 60 min, Transwell coated with 2 μg/ml fibronectin
Description: as §4

[4] = test system: apical papilla mesenchymal cells, APMCs; test: Transwell cell migration assay; assay type: cell-based; conditions: 10 μM, 60 min, Transwell coated with 2 μg/ml fibronectin
Description: as §4

SAOS-2 cells = test: in vitro mineralization test (alizarin red); assay type: cell-based; conditions: SAOS-2, 10 μM, 7 days
Description: (§5) The ability of Histatin-1 to stimulate the formation of calcium deposits was determined by the alizarin red staining test. For this, SAOS-2 cells, MC3T3-E1 preosteoblasts, stem cells from the apical papilla or dental pulp stem cells were grown in complete medium supplemented with bovine serum, in the absence or presence 10 μM Histatin-1 for 7 days. […] Cells were washed with PBS, fixed with 4% paraformaldehyde, and stained with Alizarin Red aqueous solution for 1 h. Finally, samples were washed with distilled water and subsequently with PBS. Calcium deposits were visualized in an optic microscope. Representative images are shown, and graphs represent the quantification of the amount of calcium deposits. Values are shown as the mean±s.e.m (*p<0.01; ***p<0.001).

MC3T3-E1 preosteoblasts = test: in vitro mineralization test (alizarin red); assay type: cell-based; conditions: MC3T3-E1, 10 μM, 7 days
Description: as §5

[5] = test system: SAOS-2 osteosarcoma cells; test: in vitro cell adhesion to fibronectin coated plates, crystal violet staining; assay type: cell-based; conditions: SAOS-2, 10 μM Histatin-1, fibronectin 2 μg/ml, 5-60 min, serum-free medium
Description: as §4

[6] = test system: β-catenin in SAOS-2 cells; test: immunofluorescence of total and non-phosphorylated β-catenin nuclear localization; assay type: cell-based; conditions: SAOS-2, 10 μM, 24 h
Description: (§6) In (A) SAOS-2 cells were incubated in the absence or presence of 10 μM Histatin-1 for 24 h, and whole cell lysates were prepared for Western blot analysis of β-catenin. […] In (B) SAOS-2 cells were incubated with Histatin-1 for 24 hours. Cells were then fixed, permeabilized and incubated with primary and secondary antibodies for subsequent immunofluorescence analysis of total and non-phosphorylated (transcriptionally active) β-catenin.
Representative Western blot images are shown, and relative levels of β catenin were quantified by scanning densitometry and normalized to actin. Graphs represent the average from 3 independent experiments (mean±s.e.m.; *p<0.05). (B) SAOS 2 cells were treated or not with 10 μM Histatin 1 for 24 h, then fixed, permeabilized and analyzed incubated with primary and secondary antibodies for subsequent immunofluorescence analysis of total and non-phosphorylated (transcriptionally active) β-catenin. Left panels show representative confocal microscopy images of total and active β-catenin, whereas nuclei staining with DAPI was used as reference. […]
Alternatively, SAOS-2 cells grown on coverslips were fixed, permeabilized and analyzed for total and active β-catenin nuclear localization.

[7] = test system: Alkaline Phosphatase (ALP) in MC3T3-E1 cells; test: Western blot of alkaline phosphatase in whole cell lysates; assay type: cell-based; conditions: MC3T3-E1, 10 μM, 24 h
Description: (§7) In (A) SAOS-2 and (B) MC3T3-E1 cells were incubated in the absence or presence of 10 μM Histatin-1 for 24 h, and whole cell lysates were analyzed by Western blotting of ALP. […] In (C) SAOS-2 cells were treated or not with 10 μM Histatin-1 for 24 and 48 h, and the activity of alkaline phosphatase (ALP) was measured by metabolization of the substrate p-nitrophenyl phosphate, following absorbance at 405 nm.
(§8) By Western blot assay, the effect of Histatin-1 on the expression of two proteins involved in the osteogenesis process (alkaline phosphatase, β-catenin) was evaluated. For this, SAOS-2 or MC3T3-E1 cells were seeded on 60 mm plates, grown in complete medium supplemented with bovine serum for 24 h, washed with PBS and then incubated for 24 h with either serum-free medium or serum-free medium containing 10 μM Histatin-1. […] Bound first antibodies were detected with HRP-conjugated second antibodies and detected with the EZ-ECL system.
(§9) Representative Western blot images are shown, and relative levels of ALP were quantified by scanning densitometry and normalized to actin. […] (C) SAOS 2 cells were treated or not with 10 μM Histatin 1 for 24 and 48 h, and the activity of alkaline phosphatase (ALP) was measured by metabolization of the substrate p-nitrophenyl phosphate, following absorbance at 405 nm. […]

[8] = test system: Alkaline Phosphatase (ALP) in SAOS-2 cells; test: as above; assay type: cell-based; conditions: SAOS-2, 10 μM, 24 h
Description: as §7, §8, §9

[9] = test system: Alkaline Phosphatase (ALP) in SAOS-2 cells; test: alkaline phosphatase activity, p-nitrophenyl phosphate, absorbance at 405 nm; assay type: cell-based; conditions: SAOS-2, 10 μM, 24 and 48 h
Description: as §7
Representative Western blot images are shown, and relative levels of ALP were quantified by scanning densitometry and normalized to actin. Graphs represent the average from 3 independent experiments (mean±s.e.m.; *p<0.05). (C) SAOS 2 cells were treated or not with 10 μM Histatin 1 for 24 and 48 h, and the activity of alkaline phosphatase (ALP) was measured by metabolization of the substrate p-nitrophenyl phosphate, following absorbance at 405 nm. Data were averaged from 3 independent experiments and shown as residual activity (% increase with respect to the control condition; mean±s.e.m; *p<0.05).

osteoblastic cells = conditions: zoledronic acid challenge; cited from earlier work
[10] = test system: dental pulp mesenchymal cells; test: in vitro mineralization test (alizarin red); assay type: cell-based; conditions: dental pulp mesenchymal (stem) cells, 10 μM, 7 days
Description: as §5
(§10) The same procedure was performed on stem cells of the apical papilla and dental pulp.

[11] = test system: stem cells from the apical papilla (APMCs); test: in vitro mineralization test (alizarin red); assay type: cell-based; conditions: 10 μM, 7 days
Description: as §5, §10

angiogenesis = conditions: in vivo; cited from earlier work
[12] = test system: β-catenin in SAOS-2 cells; test: Western blot of β-catenin in whole cell lysates; assay type: cell-based; conditions: SAOS-2, 10 μM, 24 h
Description: as §6, §8
Representative Western blot images are shown, and relative levels of β catenin were quantified by scanning densitometry and normalized to actin. […] (B) SAOS 2 cells were treated or not with 10 μM Histatin 1 for 24 h, then fixed, permeabilized and analyzed incubated with primary and secondary antibodies for subsequent immunofluorescence analysis of total and non-phosphorylated (transcriptionally active) β-catenin. […]

Substance: Histatin-1: human salivary peptide of 38 amino acids, obtained by chemical synthesis, with the sequence SEQ ID NO. 1 (DSHEKRHHGYRRKFHEKHHSHREFPFYGDYGSNYLYDN; listed as Homo sapiens)
- mRNA of osteoblastic differentiation markers (Runx2, osteocalcin, osteopontin, ALP), normalized to GAPDH [1]: increases the mRNA of different osteoblastic differentiation markers; also recorded: induces an increase in the relative abundance of mRNA
- mRNA of osteoblastic differentiation markers (Runx2, osteocalcin, osteopontin, ALP), normalized to GAPDH [2]: increases the mRNA of different osteoblastic differentiation markers; also recorded: induces an increase in the relative abundance of mRNA
- endothelial cell migration (endothelial cells): stimulating endothelial cell migration
- formation of endothelial structures (endothelial cells): formation of endothelial structures in vitro
- cell migration (MC3T3-E1 pre-osteoblasts): favors both cell adhesion and migration
- cell migration [3]: favors both cell adhesion and migration
- cell migration [4]: favors both cell adhesion and migration
- calcium deposits / crystal nucleation sites (alizarin red) (SAOS-2 cells): increases the number of crystal nucleation sites; also recorded: increased staining of the culture with Alizarin Red
- calcium deposits / crystal nucleation sites (alizarin red) (MC3T3-E1 preosteoblasts): increases the number of crystal nucleation sites; also recorded: increased staining of the culture with Alizarin Red
- cell adhesion [5]: favors both cell adhesion and migration
- nuclear localization of active (non-phosphorylated) β-catenin [6]: increases the nuclear localization of total and active β-catenin
- nuclear localization of total β-catenin [6]: increases the nuclear localization of total and active β-catenin
- protein levels of ALP (Western blot, normalized to actin) [7]: increases the protein levels of ALP
- protein levels of ALP (Western blot, normalized to actin) [8]: increases the protein levels of ALP; also recorded: increased the production of this enzyme
- activity of alkaline phosphatase (ALP) [9]: increases the activity of ALP
- cell migration in cells challenged with zoledronic acid (osteoblastic cells): restored both cell migration and viability
- cell viability in cells challenged with zoledronic acid (osteoblastic cells): restored both cell migration and viability
- calcium deposits / crystal nucleation sites (alizarin red) [10]: increases the number of crystal nucleation sites; also recorded: stimulated the formation of calcium deposits
- calcium deposits / crystal nucleation sites (alizarin red) [11]: increases the number of crystal nucleation sites; also recorded: stimulated the formation of calcium deposits
- angiogenesis (angiogenesis): angiogenesis in vivo
- protein levels of β-catenin (Western blot, normalized to actin) [12]: increases the protein levels of β-catenin; also recorded: increases the expression of the protein

From patent US20230010110A1, “HISTATIN-1 FORMULATION FOR THE TREATMENT, REPAIR OR REGENERATION OF BONE TISSUE IN A SUBJECT” (UNIVERSIDAD DE CHILE, priority 2019, published 2023)
